# Results: patent US20250066412A1, “CRYSTAL OF 4’-SUBSTITUTED NUCLEOSIDE, PREPARATION METHOD THEREFOR, COMPOSITION CONTAINING THE SAME, AND USE THEREOF” (HENAN GENUINE BIOTECH CO., LTD., priority 2022, published 2025)
# Like-named read-outs stand apart in the source and are kept apart here.
# Assays:
# [1] = crystal form stability by XRPD after heating, drying or storage; conditions: for XRPD / crystal form after heating: heated to 120° C.
# [2] = tested on: HIV; conditions: cited from earlier work; for inhibitory activities against HIV: literature reports; for EC50: E. Michailidis et al J. Biol. Chem. 2009, read-out: HIV inhibitory activity EC50
# [3] = at 110° C., DSC and TGA studies, background; cited from earlier work
# [4] = tested on: HIV; conditions: CN109893536 B; read-out: anti-HIV activity EC50; cited from earlier work
# [5] = vacuum drying at room temperature for 24 h
# [6] = heated to 130° C. under nitrogen
# [7] = heated to 160° C. under nitrogen protection
structure (smiles),measurement,setting,value
C#C[C@]1(CO)O[C@@H](n2cnc3c(N)nc(F)nc32)[C@@H](F)[C@@H]1O [type-XI crystal],weight loss,heated to 120° C.,19.3%
C#C[C@]1(CO)O[C@@H](n2cnc3c(N)nc(F)nc32)[C@@H](F)[C@@H]1O [type-XVI crystal],weight loss (dehydration),[5],14.39%
same,crystal form after heating (XRPD),"[1]; heated to 55° C. in a nitrogen atmosphere, held for 2 to 24 h",the type-XVII crystal was also obtained
same,crystal form after drying,[1]; [5],turned into a monohydrate crystal form
C#C[C@]1(CO)O[C@@H](n2cnc3c(N)nc(F)nc32)[C@@H](F)[C@@H]1O [type-IV crystal],weight loss,heated to 120° C.,10.6%
same,XRPD after storage,[1]; dried crystal left closed at room temperature for about 5 days,increased relative intensity of the diffraction peaks and increased number of diffraction peaks
same,crystal form after heating (XRPD),[1]; heated to 141° C. under nitrogen protection,transformed into a stable type-III crystal
same,XRPD after drying,[1]; vacuum dried at room temperature for 15 min,decreased relative intensity of the diffraction peaks
C#C[C@]1(CO)O[C@@H](n2cnc3c(N)nc(F)nc32)[C@@H](F)[C@@H]1O [type-I crystal],weight loss,further heated from 110° C. to 200° C.,3.5%
same,weight loss,heated to 110° C.,13.2%
same,XRPD after heating,"[1]; heated to 55° C. under nitrogen, cooled to room temperature, exposed to air",the diffraction peak intensity of the sample was somewhat reduced
same,crystal form after heating (XRPD),[1]; heated to 100° C. under nitrogen protection,transformed into an amorphous crystal
C#C[C@]1(CO)O[C@@H](n2cnc3c(N)nc(F)nc32)[C@@H](F)[C@@H]1O [type-X crystal],weight loss,further heated from 130° C. to 160° C.,4.5%
same,weight loss,heated to 130° C.,7.9%
same,crystal form after heating (variable-temperature XRPD),[1]; further heated to 145° C.,the crystal form was transformed
same,XRPD / crystal form after heating,[1],the position of the diffraction peak shifted
same,XRPD after heating,[1]; [6],the diffraction peak intensity was significantly reduced
[N-]=[N+]=N[C@]1(CO)O[C@@H](n2ccc(N)nc2=O)[C@@H](F)[C@@H]1O [compound (II)],inhibitory activities against HIV,[2],significant inhibitory activities
C#C[C@]1(CO)O[C@@H](n2cnc3c(N)nc(F)nc32)[C@@H](F)[C@@H]1O [type-VI crystal],weight loss,further heated from 70° C. to 130° C.,5.9%
same,weight loss,heated to 70° C.,4.9%
same,crystal form after heating (XRPD),[1]; [7],the crystal form was transformed
C#C[C@]1(CO)O[C@@H](n2cnc3c(N)nc(F)nc32)[C@@H](F)[C@@H]1O [crystal form A],weight loss,[3],9.0%
C#C[C@]1(CO)O[C@@H](n2cnc3c(N)nc(F)nc32)[C@@H](F)[C@@H]1O [type-XV crystal],weight loss,heated to 120° C.,2.2%
same,XRPD / crystal form after heating,[1],the crystal form transformation occurred
C#C[C@]1(CO)O[C@@H](n2cnc3c(N)nc(F)nc32)[C@@H](F)[C@@H]1O [type-III crystal],weight loss,heated to 200° C.,1.2%
same,crystal form after heating (variable-temperature XRPD),[1]; heated to 150° C. under nitrogen protection,the crystal form did not change
C#C[C@]1(CO)O[C@@H](n2cnc3c(N)nc(F)nc32)[C@@H](F)[C@@H]1O [type-XII crystal],weight loss,heated to 120° C.,59.6%
same,crystal form after drying,[1]; vacuum dried at room temperature for 10 min,transformed into an amorphous crystal
C#C[C@]1(CO)O[C@@H](n2cnc3c(N)nc(F)nc32)[C@@H](F)[C@@H]1O [type-IX crystal],weight loss,heated to 160° C.,20.3%
same,crystallinity after heating (XRPD),"[1]; heated to 95° C. under nitrogen, cooled to room temperature, exposed to air",the degree of crystallinity was further decreased
same,crystal form after heating (XRPD),[1]; [7],its crystal form had been transformed
same,crystallinity after storage,[1]; left closed at room temperature for about 3 days,a reduced degree of crystallinity
C#C[C@]1(CO)O[C@@H](n2cnc3c(N)nc(F)nc32)[C@@H](F)[C@@H]1O [type-V crystal],weight loss,further heated from 140° C. to 240° C.,2.8%
same,weight loss,heated to 140° C.,15.4%
same,crystal form after heating (variable-temperature XRPD),[1]; further heated to 154° C.,transformed into another crystal
same,crystal form after heating (variable-temperature XRPD),[1]; heated to 90° C. and 130° C. under nitrogen protection,substantially transformed into an amorphous crystal
same,crystallinity (variable-temperature XRPD),[1]; purged with nitrogen for about 20 min,significant decrease in degree of crystallinity
C#C[C@]1(CO)O[C@@H](n2cnc3c(N)nc(F)nc32)C[C@@H]1O [Compound 1],EC50,[2],0.05 nM
same,increase of HIV inhibitory activity by introduction of 2-fluorine,[2]; EFdA versus EdA,2200 times
same,inhibitory activities against HIV,[2],significant inhibitory activities
C#C[C@]1(CO)O[C@@H](n2cnc3c(N)nc(F)nc32)[C@@H](F)[C@@H]1O [type-XIII crystal],crystal form in a solvent environment,[1]; left in a solvent environment at room temperature,transformed into the type-XIV crystal
same,crystal form after drying,[1]; left open and dried at room temperature for about 2 h,the crystal form was transformed
C#C[C@]1(CO)O[C@@H](n2cnc3c(N)nc(F)nc32)[C@@H](F)[C@@H]1O [type-XIV crystal],stability of the crystal form (overall finding),[1],unstable intermediate state
same,crystal form after removal from the solvent environment,[1]; room temperature,transformed into the type-XIII crystal
C#C[C@]1(CO)O[C@@H](n2cnc3c(N)nc(F)nc32)[C@@H](F)[C@@H]1O [type-XVII crystal],weight loss,dried at 90° C. for 1 to 24 h,5.47%
same,change on drying,[1]; dried at 90° C. for 1 to 24 h,lost one molecule of water
"C#C[C@]1(CO)O[C@@H](n2cnc3c(N)ncnc32)C[C@@H]1O [EdA, 4′-ethynyl-2′-deoxyadenosine]",EC50,[2],11 nM
C#C[C@]1(CO)O[C@@H](n2cnc3c(N)nc(F)nc32)[C@@H](F)[C@@H]1O [type-VIII crystal],weight loss,heated to 160° C.,10.6%
same,crystal form after heating (XRPD),[1]; [7],the crystal form had been transformed
"C#C[C@]1(CO)O[C@@H](n2cnc3c(N)nc(F)nc32)[C@@H](F)[C@@H]1O [compound (3), (2R,3R,4S,5R)-5-(6-amino-2-fluoro-9H-purin-9-yl)-2-ethynyl-4-fluoro-2-(hydroxymethyl)tetrahydrofuran-3-ol]",EC50,[4],0.9 nM
C#C[C@]1(CO)O[C@@H](n2cnc3c(N)nc(F)nc32)[C@@H](F)[C@@H]1O [type-VII crystal],weight loss,heated to 130° C.,11.2%
same,XRPD after heating,[1]; [6],the crystal form was transformed
C#C[C@]1(CO)O[C@@H](n2cnc3c(N)nc(F)nc32)[C@@H](F)[C@@H]1O [type-II crystal],crystal form after drying,[1]; vacuum dried at room temperature for half an hour,transformed into a type-III crystal
